{
  "source": "patent US9107411B2",
  "about": "“Indolecarboxamides and benzimidazolecarboxamides as insecticides and acaricides” (BAYER INTELLECTUAL PROPERTY GMBH, priority 2011, dated 2015)",
  "key": {"Boophilus microplus": {"tested_on": "Boophilus microplus", "assay": "Boophilus microplus test (BOOPMI injection)", "assay_type": "in vivo", "conditions": "application rate 20 μg/animal; injected into the abdomen; after 7 days", "how_it_was_run": "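Active ingredient dissolved in DMSO (10 mg in 0.5 ml, then diluted to the test concentration) and injected into the abdomen of Boophilus microplus ticks. Ticks kept in dishes in a climate-controlled room for 7 days. Efficacy (%) is based on laying of fertile eggs; 100% means no tick laid fertile eggs.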"}, "Ctenocephalides felis": {"tested_on": "Ctenocephalides felis", "assay": "Ctenocephalides felis oral (CTECFE)", "assay_type": "in vivo", "conditions": "application rate 100 ppm in citrated cattle blood; after 2 days", "how_it_was_run": "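About 20 unfed adult fleas fed through a Parafilm membrane on citrated cattle blood containing the compound at the desired concentration, diluted from a DMSO concentrate. Kill in % was scored after 2 days, where 100% means all fleas dead and 0% none.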"}, "Lucilia cuprina larvae": {"tested_on": "Lucilia cuprina larvae", "assay": "Lucilia cuprina test (LUCICU)", "assay_type": "in vivo", "conditions": "application rate 100 ppm; treated horse meat; after 2 days", "how_it_was_run": "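About 20 Lucilia cuprina larvae placed on horse meat treated with compound formulation (DMSO concentrate diluted in water). Kill (%) scored after 2 days, 100% meaning all larvae dead.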"}, "adult Musca domestica": {"tested_on": "adult Musca domestica", "assay": "Musca domestica test (MUSCDO)", "assay_type": "in vivo", "conditions": "application rate 100 ppm; treated sponge; after 2 days", "how_it_was_run": "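Compound dissolved in DMSO and diluted with water to the desired concentration was applied to a sponge, and vessels were populated with adult flies. Kill % was scored after 2 days, where 100% means all flies dead.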"}, "Spodoptera litura": {"tested_on": "Spodoptera litura", "assay": "Spodoptera litura test (PRODLI)", "assay_type": "in vivo", "conditions": "application rate 20 ppm; synthetic feed, L3 larvae; after 6 days", "method": "Spodoptera litura Test (PRODLI) Solvent: 3 parts by weight of dimethylformamide Emulsifier: 1 part by weight of polyoxyethylene alkylphenyl ether To produce an appropriate active ingredient formulation, 1 part by weight of active ingredient is mixed with the stated amounts of solvent and emulsifier, and the concentrate is diluted with emulsifier-containing water to the desired concentration. The base of a PET vessel (diameter 7.5 cm, depth 4 cm) is covered with 2.3 g of a pulverulent synthetic feed mixture. Then 5 ml of the active ingredient formulation are added and mixed at the same time with the synthetic feed. After gelation, 5 L3 larvae of the cotton leafworm (Spodoptera litura) are placed into each vessel. After 6 days, the efficacy in % is determined 100% means that all of the larvae have been killed; 0% means that none of the larvae have been killed."}, "Tetranychus urticae [1]": {"tested_on": "Tetranychus urticae", "assay": "Common spider mite test (TETRUR)", "assay_type": "in vivo", "conditions": "application rate 100 ppm; bean leaf discs; after 6 days", "method": "Common Spider Mite Test (TETRUR) Solvent: 3 parts by weight of dimethylformamide Emulsifier: 1 part by weight of polyoxyethylene alkylphenyl ether To produce an appropriate active ingredient formulation, 1 part by weight of active ingredient is mixed with the stated amounts of solvent and emulsifier, and the concentrate is diluted with emulsifier-containing water to the desired concentration. If required, ammonium salts or ammonium salts and penetrants are additionally added in a concentration of 1000 ppm. Discs of bean leaves (Phaseolus vulgaris) infested by all stages of the red spider mite (Tetranychus urticae) are sprayed with an active ingredient formulation of the desired concentration. After 6 days, the efficacy in % is determined. 100% means that all of the spider mites have been killed; 0% means that none of the spider mites have been killed."}, "Spodoptera frugiperda": {"tested_on": "Spodoptera frugiperda", "assay": "Spodoptera frugiperda test (SPODFR spray treatment)", "assay_type": "in vivo", "conditions": "application rate 100 g/ha; maize leaf discs; after 7 days", "how_it_was_run": "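Maize leaf discs sprayed with active ingredient formulated in acetone/dimethylformamide with emulsifier, diluted in emulsifier-containing water to the desired concentration. After drying, discs were populated with armyworm caterpillars. Efficacy (%) scored after 7 days: 100% all caterpillars killed, 0% none killed.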"}, "Tetranychus urticae [2]": {"tested_on": "Tetranychus urticae", "assay": "Tetranychus test, OP-resistant (TETRUR spray treatment)", "assay_type": "in vivo", "conditions": "application rate 100 g/ha; bean leaf discs; after 6 days", "how_it_was_run": "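Bean leaf discs infested with all stages of OP-resistant T. urticae sprayed with compound formulated in acetone/DMF plus alkylaryl polyglycol ether emulsifier, diluted in water. Efficacy (% mites killed) scored after 6 days.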"}, "logP (HPLC-MS)": {"assay": "logP (HPLC-MS)", "assay_type": "physicochemical"}},
  "note": "Read-outs that look alike come from different tables or passages of the source.",
  "data": [
    {"smiles": "C#CCn1c(C(=O)NC(c2ccc(F)c(C(F)(F)F)c2)C(F)(F)F)cc2cc(C(=O)NC3CC3)c(Cl)cc21", "note": "(stereo not shown) [Compound 6]", "values": [
      {"measurement": "efficacy (laying of fertile eggs)", "setting": "Boophilus microplus", "value": 100, "unit": "%"},
      {"measurement": "efficacy (kill in %)", "setting": "Ctenocephalides felis", "value": 100, "unit": "%"},
      {"measurement": "efficacy (kill in %)", "setting": "Lucilia cuprina larvae", "value": 100, "unit": "%"},
      {"measurement": "efficacy (kill in %)", "setting": "adult Musca domestica", "value": 100, "unit": "%"},
      {"measurement": "efficacy in %", "setting": "Spodoptera litura", "value": 100, "unit": "%"},
      {"measurement": "efficacy in %", "setting": "Tetranychus urticae [1]", "value": 100, "unit": "%"},
      {"measurement": "efficacy in %", "setting": "Spodoptera frugiperda", "value": 100, "unit": "%"},
      {"measurement": "efficacy in %", "setting": "Tetranychus urticae [2]", "value": 80, "unit": "%"},
      {"measurement": "log p", "setting": "logP (HPLC-MS); HPLC, reversed-phase column (C18), acidic range pH 2.7, acetonitrile (0.1% formic acid)/water gradient, 43° C., calibration with unbranched alkan-2-ones", "value": 3.59}
    ]},
    {"smiles": "CCn1c(C(=O)NC(c2cccc(C(F)(F)F)c2)C(F)(F)F)cc2cc(C(=O)NC3(C#N)CC3)c(Cl)cc21", "note": "(stereo not shown) [Compound 7, 6-chloro-N^5-(1-cyanocyclopropyl)-1-ethyl-N^2-{2,2,2-trifluoro-1-[3-(trifluoromethyl)phenyl]ethyl}-1H-indole-2,5-dicarboxamide]", "values": [
      {"measurement": "efficacy (laying of fertile eggs)", "setting": "Boophilus microplus", "value": 100, "unit": "%"},
      {"measurement": "efficacy (kill in %)", "setting": "Ctenocephalides felis", "value": 100, "unit": "%"},
      {"measurement": "efficacy (kill in %)", "setting": "Lucilia cuprina larvae", "value": 100, "unit": "%"},
      {"measurement": "efficacy (kill in %)", "setting": "adult Musca domestica", "value": 100, "unit": "%"},
      {"measurement": "efficacy in %", "setting": "Spodoptera litura", "value": 100, "unit": "%"},
      {"measurement": "efficacy in %", "setting": "Tetranychus urticae [1]", "value": 100, "unit": "%"},
      {"measurement": "efficacy in %", "setting": "Spodoptera frugiperda", "value": 100, "unit": "%"},
      {"measurement": "efficacy in %", "setting": "Tetranychus urticae [2]", "value": 100, "unit": "%"},
      {"measurement": "chromatographic logP", "setting": "logP (HPLC-MS); HPLC, reversed-phase column (C18), acidic range pH 2.7, acetonitrile (0.1% formic acid)/water gradient, 43° C., calibration with unbranched alkan-2-ones, read-out: log p", "value": 3.78},
      {"measurement": "chromatographic logP", "setting": "logP (HPLC-MS); HPLC-MS", "value": 3.8}
    ]}
  ]
}
